Assay results from ChEMBL document CHEMBL1201862, “PubChem BioAssay data set” (2004).
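Where inhibition never reached the appropriate level, the endpoint shown equals the highest concentration tested. Otherwise, values were interpolated linearly from a five-concentration, 48-hour dose response in 96-well plates. GI50: concentration for 50% inhibition of growth.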 The source made the active and inactive calls. Cut-off read from the data, not from the text of the source: active = GI50 up to about 1.1 µM and inactive = higher.

Key:
Assay in all cases: NCI-60 cell line screen, 48 h
OVCAR-5 = system: OVCAR-5
MDA-MB-435 = system: MDA-MB-435
MCF7 = system: MCF7
RXF 393 = system: RXF 393
CCRF-CEM = system: CCRF-CEM
ACHN = system: ACHN
SR = system: SR
PC-3 = system: PC-3
NCI-H522 = system: NCI-H522
A549 = system: A549
Hs-578T = system: Hs-578T
COLO 205 = system: COLO 205
TK-10 = system: TK-10
IGROV-1 = system: IGROV-1
K562 = system: K562
SW-620 = system: SW-620
RPMI-8226 = system: RPMI-8226
HOP-92 = system: HOP-92
HCC 2998 = system: HCC 2998
786-0 = system: 786-0
MDA-MB-231 = system: MDA-MB-231
SNB-19 = system: SNB-19
OVCAR-4 = system: OVCAR-4
SK-OV-3 = system: SK-OV-3
OVCAR-8 = system: OVCAR-8
NCI-H23 = system: NCI-H23
KM12 = system: KM12
UACC-62 = system: UACC-62
NCI-H460 = system: NCI-H460
HL-60 = system: HL-60
U-251 = system: U-251
HOP-62 = system: HOP-62
MOLT-4 = system: MOLT-4
A498 = system: A498
SK-MEL-28 = system: SK-MEL-28
EKVX = system: EKVX
SF-268 = system: SF-268
MDA-N = system: MDA-N
SF-539 = system: SF-539
Malme-3M = system: Malme-3M
M14 = system: M14
LOX IMVI = system: LOX IMVI
SNB-75 = system: SNB-75
T47D = system: T47D
SK-MEL-2 = system: SK-MEL-2
HCT-116 = system: HCT-116
UO-31 = system: UO-31
OVCAR-3 = system: OVCAR-3
DU-145 = system: DU-145
SN12C = system: SN12C
UACC-257 = system: UACC-257
SK-MEL-5 = system: SK-MEL-5
NCI-H226 = system: NCI-H226
NCI/ADR-RES = system: NCI/ADR-RES
SF-295 = system: SF-295
HCT-15 = system: HCT-15
CAKI-1 = system: CAKI-1
HT-29 = system: HT-29
BT-549 = system: BT-549

For `CCOC(=O)OC1(c2ccccc2)CCN(C)CC1`, the GI50 (OVCAR-5) was > 100 µM (inactive), the GI50 (MDA-MB-435) was > 100 µM (inactive) and the GI50 (MCF7) was > 100 µM (inactive). For the same molecule, the GI50 (RXF 393) was > 100 µM (inactive), the GI50 (CCRF-CEM) was > 100 µM (inactive) and the GI50 (ACHN) was > 100 µM (inactive). The GI50 (SR) was > 100 µM (inactive), the GI50 (PC-3) was > 100 µM (inactive) and the GI50 (NCI-H522) was > 100 µM (inactive). For the same molecule, the GI50 (A549) was > 100 µM (inactive), the GI50 (Hs-578T) was > 100 µM (inactive) and the GI50 (COLO 205) was > 100 µM (inactive). For the same molecule, the GI50 (TK-10) was > 100 µM (inactive), the GI50 (IGROV-1) was > 100 µM (inactive) and the GI50 (K562) was > 100 µM (inactive). The GI50 (SW-620) was > 100 µM (inactive), the GI50 (RPMI-8226) was > 100 µM (inactive) and the GI50 (HOP-92) was > 100 µM (inactive). The GI50 (HCC 2998) was > 100 µM (inactive), the GI50 (786-0) was > 100 µM (inactive) and the GI50 (MDA-MB-231) was > 100 µM (inactive). For the same molecule, the GI50 (SNB-19) was > 100 µM (inactive), the GI50 (OVCAR-4) was > 100 µM (inactive) and the GI50 (SK-OV-3) was > 100 µM (inactive). The GI50 (OVCAR-8) was > 100 µM (inactive), the GI50 (NCI-H23) was > 100 µM (inactive) and the GI50 (KM12) was > 100 µM (inactive). The GI50 (UACC-62) was > 100 µM (inactive), the GI50 (NCI-H460) was > 100 µM (inactive) and the GI50 (HL-60) was > 100 µM (inactive). For the same molecule, the GI50 (U-251) was > 100 µM (inactive), the GI50 (HOP-62) was > 100 µM (inactive) and the GI50 (MOLT-4) was > 100 µM (inactive). For the same molecule, the GI50 (A498) was > 100 µM (inactive), the GI50 (SK-MEL-28) was > 100 µM (inactive) and the GI50 (EKVX) was > 100 µM (inactive). The GI50 (SF-268) was > 100 µM (inactive), the GI50 (MDA-N) was > 100 µM (inactive) and the GI50 (SF-539) was > 100 µM (inactive). The GI50 (Malme-3M) was > 100 µM (inactive), the GI50 (M14) was > 100 µM (inactive) and the GI50 (LOX IMVI) was > 100 µM (inactive). For the same molecule, the GI50 (SNB-75) was > 100 µM (inactive), the GI50 (T47D) was > 100 µM (inactive) and the GI50 (SK-MEL-2) was > 100 µM (inactive). For the same molecule, the GI50 (HCT-116) was > 100 µM (inactive), the GI50 (UO-31) was > 100 µM (inactive) and the GI50 (OVCAR-3) was > 100 µM (inactive). The GI50 (DU-145) was > 100 µM (inactive), the GI50 (SN12C) was > 100 µM (inactive) and the GI50 (UACC-257) was > 100 µM (inactive). For the same molecule, the GI50 (SK-MEL-5) was > 100 µM (inactive), the GI50 (NCI-H226) was > 100 µM (inactive) and the GI50 (NCI/ADR-RES) was > 100 µM (inactive). For the same molecule, the GI50 (SF-295) was > 100 µM (inactive), the GI50 (HCT-15) was > 100 µM and the GI50 (CAKI-1) was > 100 µM (inactive). The GI50 (HT-29) was > 100 µM (inactive).

In the case of `N/C(=N\c1ccc(Cl)cc1)NS(=O)(=O)c1ccc(-c2ncccc2C(F)(F)F)s1`, the GI50 (OVCAR-5) is reported as 24.3 µM (inactive), the GI50 (MCF7) is reported as 14.7 µM (inactive) and the GI50 (RXF 393) is reported as 18.3 µM (inactive). The GI50 (ACHN) was 16 µM (inactive), the GI50 (SR) was 10.5 µM (inactive) and the GI50 (PC-3) was 13.1 µM (inactive). The GI50 (NCI-H522) was 10.4 µM (inactive), the GI50 (A549) was 15.2 µM (inactive) and the GI50 (Hs-578T) was 17.1 µM (inactive). The GI50 (COLO 205) was 42 µM (inactive), the GI50 (TK-10) was 13.4 µM (inactive) and the GI50 (IGROV-1) was 12 µM (inactive). For the same molecule, the GI50 (K562) was 13.1 µM (inactive), the GI50 (SW-620) was 15.3 µM (inactive) and the GI50 (RPMI-8226) was 17.3 µM (inactive). The GI50 (HOP-92) was 14.7 µM (inactive), the GI50 (786-0) was 17.1 µM (inactive) and the GI50 (MDA-MB-231) was 13.9 µM (inactive). For the same molecule, the GI50 (SNB-19) was 18.6 µM (inactive), the GI50 (OVCAR-4) was 18.5 µM (inactive) and the GI50 (SK-OV-3) was 17.4 µM (inactive). The GI50 (OVCAR-8) was 14.6 µM (inactive), the GI50 (NCI-H23) was 13.5 µM (inactive) and the GI50 (KM12) was 23.9 µM (inactive). For the same molecule, the GI50 (UACC-62) was 11.3 µM (inactive), the GI50 (NCI-H460) was 13.1 µM (inactive) and the GI50 (HL-60) was 15.2 µM (inactive). For the same molecule, the GI50 (U-251) was 13.1 µM (inactive), the GI50 (HOP-62) was 18.2 µM (inactive) and the GI50 (MOLT-4) was 12.7 µM (inactive). The GI50 (BT-549) was 14.9 µM (inactive), the GI50 (A498) was 16.7 µM (inactive) and the GI50 (SK-MEL-28) was 16.9 µM (inactive). For the same molecule, the GI50 (EKVX) was 4.61 µM (inactive), the GI50 (SF-268) was 16.5 µM (inactive) and the GI50 (SF-539) was 25.8 µM (inactive). For the same molecule, the GI50 (Malme-3M) was 15.2 µM (inactive), the GI50 (M14) was 14.6 µM (inactive) and the GI50 (LOX IMVI) was 14 µM (inactive). For the same molecule, the GI50 (SNB-75) was 18.8 µM (inactive), the GI50 (T47D) was 12.3 µM (inactive) and the GI50 (SK-MEL-2) was 15.8 µM (inactive). For the same molecule, the GI50 (HCT-116) was 14 µM (inactive), the GI50 (UO-31) was 17.2 µM (inactive) and the GI50 (OVCAR-3) was 17.6 µM (inactive). The GI50 (DU-145) was 17.1 µM (inactive), the GI50 (SN12C) was 17.2 µM (inactive) and the GI50 (UACC-257) was 3.17 µM (inactive). For the same molecule, the GI50 (SK-MEL-5) was 20.5 µM (inactive), the GI50 (NCI-H226) was 17.2 µM (inactive) and the GI50 (NCI/ADR-RES) was 18.8 µM (inactive). For the same molecule, the GI50 (SF-295) was 16.1 µM (inactive), the GI50 (HCT-15) was 16.6 µM and the GI50 (HT-29) was 19.4 µM (inactive).
